Data published in article PMC11724075, “Small-molecule-induced ERBB4 activation to treat heart failure” (Nature Communications, 2025).
Several values for one entry are separate records, joined by “and”; a condition that tells them apart may be missing. Identical values can stand only once.

What was measured:
mouse model of MI [1] = assay: Mouse model of MI (LAD ligation), echocardiography; format: in vivo; set-up: left-ventricular end-diastolic volume / left-ventricular end-systolic volume: unit not given here
Method: (§1) Twelve-week-old female and male Balb/cJ (Charles River, 000651) mice were randomized into either the ctrl or MI group. Mice in the MI group underwent surgical ligation of the LAD, while mice in the ctrl group underwent a sham procedure (n = 8 female mice, n = 10 male mice). Briefly, all mice received an injection of 0.1 mg/kg buprenorphine (Produlab Pharma) before induction of anesthesia with 8% sevoflurane (Zoetis). Anesthesia was maintained with 4.5% sevoflurane and mice were intubated and ventilated. An incision of 15 mm was made on the left side of the thorax and the thoracic cavity was opened at the third intercostal space using blunt forceps. The LAD was permanently ligated with a 8/0 polypropylene monofilament sutures (Ethicon, F1894) after which the thoracic cavity and skin were closed with 6/0 polypropylene monofilament sutures (Ethicon, F1841). and 5/0 polyamide 6 sutures (Ethilon, F2412H), respectively. Mice received another dose of 0.1 mg/kg buprenorphine 6–8 h after the initial dose. Two days after surgery, cardiac ultrasound was performed to exclude mice without successful MI (i.e. displaying hypokinesia in ≥2 out of 5 segments). […] Cardiac ultrasound was performed weekly. After 4 weeks of treatment, mice were euthanized, and hearts were collected.
Echocardiography was performed using the Vevo F2-LAZRX (FUJIFILM VisualSonics) and UHF57x probe. Mice were anesthetized with 1.5% isoflurane (Alvira, BE-V512222). Parasternal long-axis B-mode images and M-mode images were obtained and analyzed using VevoLAB software (FUJIFILM VisualSonics, Version 5.7.1). For the AngII experiments, measurements were obtained through analysis of the short-axis M-mode. For the MI experiments, measurements were obtained through analysis of the parasternal long-axis B-mode, of which the area and end-volume of the left ventricular cavity in diastole and systole were determined by tracing the endocardial border. Acquisitions, measurements and analyses were performed blinded.
Supplementary Table 2. Echocardiographic parameters. […]
Echocardiographic parameters obtained through left ventricular trace analysis of the parasternal long-axis obtained in B-mode in female wild-type mice that underwent a sham or MI operation: mice with […]
in MI/EF-1 group). (g) Echocardiographic parameters obtained through left ventricular trace analysis of the parasternal long-axis obtained in B-mode in male wild-type mice that underwent a sham or MI […]
male mice in MI/Veh group for T2 and T4). Echocardiographic parameters were measured weekly (indicated by ‘T’). All data are presented as mean (value of individual mice) ± SD, two-tailed unpaired […]
1 groups. Source data are provided as a Source Data file. AngII, angiotensin II; ANOVA, analysis of variance; Ctrl, control; DOX, doxorubicin; EF, ejection fraction; ERBB4, erythroblastic leukemia viral oncogene homolog 4; FS, fractional shortening; IVSd, interventricular septum thickness in diastole; IVSs, interventricular septum thickness in systole; LVIDd, left ventricular internal diameter in diastole; LVIDs, left ventricular internal diameter in systole; LVPWd, left ventricular posterior wall thickness in diastole; LVPWs, left ventricular posterior wall thickness in systole; MI, myocardial infarction; NA, non-activating pharmacophore-containing compound; SD, standard variation; Veh, vehicle.

mouse model of MI [2] = assay: Mouse model of MI, histology: CSA, capillaries, interstitial fibrosis, scar size; format: in vivo
Method: as §1
Hearts were fixed in 4% PFA, paraffin-embedded, and cut into 5-µm sections. Images were acquired with an Olympus BX43 microscope (Olympus Stream Motion Software) or a CELENA® S Digital Imaging System and analyzed with ImageJ 2.14.0 software. Collagen distribution was visualized by Masson’s trichrome staining. Cardiac total fibrosis was expressed as the ratio of positively stained fibrotic area (blue) to the total area and perivascular fibrosis as the ratio of fibrotic area to vascular lumen area. Scar size was determined by measuring the scar length over the […]. Hypertrophy and vascularisation were visualized via an isolectin-B4/WGA/DAPI staining. Quantification was performed by a person blinded to the treatment protocol.

[3] = Myocardial infarction, female wild-type mice, MI/EF-1, T0
[4] = Myocardial infarction, female wild-type mice, MI/EF-1, T2
[5] = Myocardial infarction, female wild-type mice, MI/EF-1, T3
[6] = Myocardial infarction, female wild-type mice, MI/EF-1, T4
[7] = Myocardial infarction, male wild-type mice, MI/EF-1, T0
[8] = Myocardial infarction, male wild-type mice, MI/EF-1, T2
[9] = Myocardial infarction, male wild-type mice, MI/EF-1, T3
[10] = Myocardial infarction, male wild-type mice, MI/EF-1, T4
[11] = female wild-type mice, MI/EF-1, T0, mean ± SD
[12] = female wild-type mice, MI/EF-1, T2, mean ± SD
[13] = female wild-type mice, MI/EF-1, T3, mean ± SD
[14] = female wild-type mice, MI/EF-1, T4, mean ± SD
[15] = male mice, MI/EF-1, 0 weeks after MI
[16] = male wild-type mice, MI/EF-1, T0, mean ± SD
[17] = male wild-type mice, MI/EF-1, T2, mean ± SD
[18] = male wild-type mice, MI/EF-1, T3, mean ± SD
[19] = male wild-type mice, MI/EF-1, T4, mean ± SD
[20] = MI experiment, female mice, MI/EF-1

SMILES: O=C(NC1CC1)C(Sc1nc2ccccc2c(=O)n1C1CCCC1)c1ccccc1 (centres unmarked) [EF-1]
- LVEDA (mouse model of MI [1]; [3]): 21.8 ± 1.4 mm²
- LVEDV (mouse model of MI [1]; [3]): 56.7 ± 5.5 µL
- LVESA (mouse model of MI [1]; [3]): 15.5 ± 2.1 mm²
- LVESV (mouse model of MI [1]; [3]): 32.7 ± 6.7 µL
- LVEDA (mouse model of MI [1]; [4]): 25.7 ± 1.6 mm²
- LVEDV (mouse model of MI [1]; [4]): 73.6 ± 9.1 µL
- LVESA (mouse model of MI [1]; [4]): 20.8 ± 2.9 mm²
- LVESV (mouse model of MI [1]; [4]): 53.9 ± 14.5 µL
- LVEDA (mouse model of MI [1]; [5]): 26.5 ± 4.5 mm²
- LVEDV (mouse model of MI [1]; [5]): 80.3 ± 22.9 µL
- LVESA (mouse model of MI [1]; [5]): 21.2 ± 5.8 mm²
- LVESV (mouse model of MI [1]; [5]): 56.6 ± 25.0 µL
- LVEDA (mouse model of MI [1]; [6]): 26.5 ± 4.5 mm²
- LVEDV (mouse model of MI [1]; [6]): 80.3 ± 22.9 µL
- LVESA (mouse model of MI [1]; [6]): 21.2 ± 5.8 mm²
- LVESV (mouse model of MI [1]; [6]): 56.6 ± 25.0 µL
- LVEDA (mouse model of MI [1]; [7]): 24.7 ± 3.9 mm²
- LVEDV (mouse model of MI [1]; [7]): 67.1 ± 15.6 µL
- LVESA (mouse model of MI [1]; [7]): 17.6 ± 2.8 mm²
- LVESV (mouse model of MI [1]; [7]): 37.3 ± 8.9 µL
- LVEDA (mouse model of MI [1]; [8]): 34.8 ± 5.5 mm²
- LVEDV (mouse model of MI [1]; [8]): 118.7 ± 30.8 µL
- LVESA (mouse model of MI [1]; [8]): 29.7 ± 6.7 mm²
- LVESV (mouse model of MI [1]; [8]): 93.3 ± 36.1 µL
- LVEDA (mouse model of MI [1]; [9]): 36.6 ± 5.9 mm²
- LVEDV (mouse model of MI [1]; [9]): 124.6 ± 35.3 µL
- LVESA (mouse model of MI [1]; [9]): 31.3 ± 8.0 mm²
- LVESV (mouse model of MI [1]; [9]): 100.4 ± 42.0 µL
- LVEDA (mouse model of MI [1]; [10]): 35.9 ± 6.9 mm²
- LVEDV (mouse model of MI [1]; [10]): 119.8 ± 37.5 µL
- LVESA (mouse model of MI [1]; [10]): 30.5 ± 7.7 mm²
- LVESV (mouse model of MI [1]; [10]): 92.5 ± 40.6 µL
- effect on MI-induced increase in LVEDV and LVESV (in words) (mouse model of MI [1]; female mice, four-week treatment, EF-1 2 mg/kg/day): significantly attenuated the increase in LVEDV and LVESV
- effect on left ventricular ejection fraction (in words) (mouse model of MI [1]; female mice, four-week treatment, p = 0.0858): trend towards an increased EF
- EF (ejection fraction) (mouse model of MI [1]; [11]): 42.7 ± 8.1%
- LVEDA (mouse model of MI [1]; [11]): 21.8 ± 1.4 mm²
- LVEDV (mouse model of MI [1]; [11]): 56.7 ± 5.5 µL
- LVESA (mouse model of MI [1]; [11]): 15.5 ± 2.1 mm²
- LVESV (mouse model of MI [1]; [11]): 32.7 ± 6.7 µL
- EF (ejection fraction) (mouse model of MI [1]; [12]): 27.4 ± 14.1%
- LVEDA (mouse model of MI [1]; [12]): 25.7 ± 1.6 mm²
- LVEDV (mouse model of MI [1]; [12]): 73.6 ± 9.1 µL
- LVESA (mouse model of MI [1]; [12]): 20.8 ± 2.9 mm²
- LVESV (mouse model of MI [1]; [12]): 53.9 ± 14.5 µL
- EF (ejection fraction) (mouse model of MI [1]; [13]): 32.2 ± 12.4%
- LVEDA (mouse model of MI [1]; [13]): 26.5 ± 4.5 mm²
- LVEDV (mouse model of MI [1]; [13]): 80.3 ± 22.9 µL
- LVESA (mouse model of MI [1]; [13]): 21.2 ± 5.8 mm²
- LVESV (mouse model of MI [1]; [13]): 56.6 ± 25.0 µL
- EF (ejection fraction) (mouse model of MI [1]; [14]): 32.2 ± 12.4%
- LVEDA (mouse model of MI [1]; [14]): 26.5 ± 4.5 mm²
- LVEDV (mouse model of MI [1]; [14]): 80.3 ± 22.9 µL
- LVESA (mouse model of MI [1]; [14]): 21.2 ± 5.8 mm²
- LVESV (mouse model of MI [1]; [14]): 56.6 ± 25.0 µL
- effect on LVEDV, LVESV, or EF (in words) (mouse model of MI [1]; male mice): did not have affect LVEDV, LVESV, or EF
- ejection fraction (mouse model of MI [1]; [15]): 45.4182 and 46.7993 and 31.6272 and 37.5306 and 56.6563
- left-ventricular end-diastolic volume (mouse model of MI [1]; [15]): 76.7178 and 76.3835 and 40.6948 and 76.4847 and 65.2387
- left-ventricular end-systolic volume (mouse model of MI [1]; [15]): 41.874 and 40.6361 and 27.8242 and 47.7795 and 28.2468
- left-ventricular end-diastolic volume (mouse model of MI [1]; male mice, MI/EF-1, 3 weeks after MI): 90.4868 and 146.112 and 167.204 and 86.1633 and 133.043
- EF (ejection fraction) (mouse model of MI [1]; [16]): 43.6 ± 9.5%
- LVEDA (mouse model of MI [1]; [16]): 24.7 ± 3.9 mm²
- LVEDV (mouse model of MI [1]; [16]): 67.1 ± 15.6 µL
- LVESA (mouse model of MI [1]; [16]): 17.6 ± 2.8 mm²
- LVESV (mouse model of MI [1]; [16]): 37.3 ± 8.9 µL
- EF (ejection fraction) (mouse model of MI [1]; [17]): 23.2 ± 12.8%
- LVEDA (mouse model of MI [1]; [17]): 34.8 ± 5.5 mm²
- LVEDV (mouse model of MI [1]; [17]): 118.7 ± 30.8 µL
- LVESA (mouse model of MI [1]; [17]): 29.7 ± 6.7 mm²
- LVESV (mouse model of MI [1]; [17]): 93.3 ± 36.1 µL
- EF (ejection fraction) (mouse model of MI [1]; [18]): 22.0 ± 15.7%
- LVEDA (mouse model of MI [1]; [18]): 36.6 ± 5.9 mm²
- LVEDV (mouse model of MI [1]; [18]): 124.6 ± 35.3 µL
- LVESA (mouse model of MI [1]; [18]): 31.3 ± 8.0 mm²
- LVESV (mouse model of MI [1]; [18]): 100.4 ± 42.0 µL
- EF (ejection fraction) (mouse model of MI [1]; [19]): 25.2 ± 11.5%
- LVEDA (mouse model of MI [1]; [19]): 35.9 ± 6.9 mm²
- LVEDV (mouse model of MI [1]; [19]): 119.8 ± 37.5 µL
- LVESA (mouse model of MI [1]; [19]): 30.5 ± 7.7 mm²
- LVESV (mouse model of MI [1]; [19]): 92.5 ± 40.6 µL
- capillary density (#cap./100 CMs) (mouse model of MI [2]; [20]): 126.379 #cap./100 CMs and 126.085 #cap./100 CMs and 117.771 #cap./100 CMs and 154.255 #cap./100 CMs and 147.06 #cap./100 CMs and 123.257 #cap./100 CMs and 102.661 #cap./100 CMs
- capillary density (#cap./area) (mouse model of MI [2]; [20]): 2.749 #cap./area and 3.344 #cap./area and 2.607 #cap./area and 4.068 #cap./area and 3.029 #cap./area and 3.536 #cap./area and 2.904 #cap./area
- cardiomyocyte cross-sectional area in MI/EF-1 group (in words) (mouse model of MI [2]; both male and female mice): significant increase in cross-sectional area
- interstitial fibrosis in the remote myocardium of the infarcted hearts (in words) (mouse model of MI [2]; female mice): significantly lower
- number of capillaries per area (µm²) of the heart in MI/EF-1 group (in words) (mouse model of MI [2]; female mice): marked decrease in number of capillaries per area
- scar size (in words) (mouse model of MI [2]; female or male mice): did not affect scar size
- half-life with human liver microsomes: > 6 h
